Reference: paper PMC5622368, “Redundancy between nucleases required for homologous recombination promotes PARP inhibitor resistance in the eukaryotic model organism Dictyostelium” (Nucleic Acids Research, 2017)

Target: T1, Adprt2 (Dictyostelium discoideum, UniProt Q8I7C6)
T1 construct: recombinant His-tagged, expressed and purified from bacteria
T1 sequence (Q8I7C6 1-700): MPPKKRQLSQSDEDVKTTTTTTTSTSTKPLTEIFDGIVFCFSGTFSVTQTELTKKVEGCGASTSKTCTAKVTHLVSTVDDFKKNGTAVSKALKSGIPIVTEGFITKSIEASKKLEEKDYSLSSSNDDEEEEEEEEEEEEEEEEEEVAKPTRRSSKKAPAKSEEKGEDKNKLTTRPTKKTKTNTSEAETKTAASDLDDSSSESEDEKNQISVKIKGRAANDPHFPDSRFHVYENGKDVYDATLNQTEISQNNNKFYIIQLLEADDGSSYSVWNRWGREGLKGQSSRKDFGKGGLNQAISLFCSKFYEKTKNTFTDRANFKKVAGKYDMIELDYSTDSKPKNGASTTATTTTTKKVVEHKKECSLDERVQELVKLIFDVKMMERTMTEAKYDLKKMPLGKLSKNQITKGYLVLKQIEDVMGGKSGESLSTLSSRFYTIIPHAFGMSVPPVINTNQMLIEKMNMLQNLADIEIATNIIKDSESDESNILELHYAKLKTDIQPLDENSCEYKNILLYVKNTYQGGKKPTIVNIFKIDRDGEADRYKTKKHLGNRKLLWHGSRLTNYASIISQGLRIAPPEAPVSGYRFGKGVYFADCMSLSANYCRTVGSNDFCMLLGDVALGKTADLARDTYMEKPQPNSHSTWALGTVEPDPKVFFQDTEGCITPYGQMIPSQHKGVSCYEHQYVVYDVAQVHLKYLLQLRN
Experiment: auto-ADP-ribosylation, […]-NAD+, SDS-PAGE and phosphorimager
Format: biochemical
Conditions: room temperature

[1] = 75 uM NAD+, 100 nM 32P-NAD+, 1 uM enzyme, Tris-HCl pH 8, 2 mM MgCl2, sheared salmon sperm DNA, 30 min

| Compound | auto-ADP-ribosylation, 32P-NAD+, SDS-PAGE and phosphorimager [1] | auto-ADP-ribosylation, 32P-NAD+, SDS-PAGE and phosphorimager (75 uM NAD+ plus 100 nM 32P-NAD+ (labelled compound), pH 8, 2 mM MgCl2, sheared salmon sperm DNA) |
| --- | --- | --- |
| O=C(c1cc(Cc2n[nH]c(=O)c3ccccc23)ccc1F)N1CCN(C(=O)C2CC2)CC1 [olaparib] | olaparib and rucaparib are more effective at inhibiting Adprt1a than Adprt2 | – |
| CNCc1ccc(-c2[nH]c3cc(F)cc4c3c2CCNC4=O)cc1 [rucaparib] | olaparib and rucaparib are more effective at inhibiting Adprt1a than Adprt2 | – |
| NC(=O)c1ccc[n+]([C@@H]2O[C@H](COP(=O)(O)OP(=O)(O)OC[C@H]3O[C@@H](n4cnc5c(N)ncnc54)[C@H](O)[C@@H]3O)[C@@H](O)[C@H]2O)c1 [NAD+] | – | ADP-ribosylated species that co-migrates with recombinant Adprt1a or Adprt2 in our assays |
| Cc1nc2c(O)cccc2c(=O)[nH]1 [NU1025] | these agents inhibit auto-ribosylation of the SSB-responsive ART Adprt2 | – |
